Data set [1] relates to syngeneic spleen cells pulsed with the CTL determinant. Particulars: mouse.
The next data set deals with Mem 71 influenza virus. Particulars: in vivo.
A further data set deals with D1 cells. As to the kind of experiment: Maturation of D1 dendritic cells (surface MHC class II, flow cytometry). The data set is classed as cell-based, BALB/c mouse. Particulars: D1 cells, overnight incubation, 0.45 nmoles/mL; LPS positive control.
The subject of another data set is B16-OVA cells. The experiment in a line: Protection against B16-OVA melanoma challenge (tumour growth). The data set is classed as in vivo, C57BL/6 mice. Particulars: 20 nmoles s.c., 2×10^5 B16-OVA cells 14 days later. An excerpt: FIG. 13 is a graphical representation showing protection against B16 melanoma with lipopeptide vaccination. C57BL/6 mice were vaccinated with 20 nmoles lipidated peptide [P25]-Lys(Pam2Cys-Ser-Ser)-[[…]] ([…] disclosed as SEQ ID NO: 173) (open circles), non-lipidated peptide [P25]-Lys-[[…]] ([…] disclosed as SEQ ID NO: 173) (open triangles) or with PBS (open squares) subcutaneously in the base of the tail. Mice were then challenged s.c. on the back 14 days later with 2×10^5 B16-OVA cells (n=6 per group) and tumour growth monitored as described (Anraku, et al., J Virol. 76; 3791-3799, 2002).
(§1) Each of 9 C57BL/6 mice (8-10 wks) were immunised subcutaneously with 20 nmoles of lipidated [P25]-Lys(Pam2Cys-Ser-Ser)-[[…]] ([…] disclosed as SEQ ID NO: 173) or non-lipidated [P25]-Lys-[[…]] ([…] disclosed as SEQ ID NO: 173) peptide in 100 μl volume of saline. In the case of lipidated peptide, lipid was attached between the two epitopes at the approximate centre of the molecule.
14 days after inoculation with non-lipidated [P25]-Lys-[[…]] ([…] disclosed as SEQ ID NO: 173) or lipidated peptide [P25]-Lys(Pam2Cys-Ser-Ser)-[[…]] […] Growing tumors were monitored, and the animals were sacrificed when tumor size reached 15 by 15 mm. Mean tumor area was calculated for each treatment group at the indicated number of days after the tumor challenge.

Another data set deals with splenocytes. The experiment in a line: IFN-gamma secreting splenocytes in mice vaccinated with […] peptides and challenged with B16-OVA. The class given is in vivo, C57BL/6 mice. Particulars: 20 nmoles s.c., B16-OVA challenge; for No. IFN-γ secreting splenocytes per 10^6 splenocytes, Average: average of three samples; for No. IFN-γ secreting splenocytes per 10^6 splenocytes: individual samples, in vitro stimulation with SIINFEKL
The protocol:
as §1
CTL-specific IFN-γ-secreting cells were enumerated by an ELISPOT assay modified from that of Murali-Krishna et al., Immunity 8, 177-187, 1998. Flat-bottom polyvinyl chloride microtiter plates (96-well: Dynatech) were coated overnight with 50 μl of rat anti-(mouse IFN-γ) antibody (clone R4-14a2) at 5 μg/ml in PBS. Unoccupied sites on the wells were then blocked by incubation for 1 h with 10 mg of bovine serum albumin/ml in PBS, and the plates were washed three times with PBS containing 0.05% Tween 20 (PBST). Twofold dilutions of spleen or lymph node cells in T-cell medium were then added to the wells, together with 5×10^5 irradiated (2,200 rads, ^60Co source) syngeneic spleen cells from unimmunized mice and 10 U of recombinant human interleukin-2 (Pharmingen, San Diego, Calif.)/well. Cells were incubated at 37° C. in 5% CO2 for 18 h in the presence or absence of the CTL peptide at a concentration of 1 μg of peptide/ml. Cells were then lysed and removed by rinsing the plates, initially with distilled water and then PBST. Then, 50 μl of a 1/500 dilution of biotinylated anti-(mouse IFN-γ) antibody (clone XMG 1.2; Pharmingen) was added, and the plates were incubated at room temperature for 2 h. Plates were again washed, and 50 μl of streptavidin-alkaline phosphatase (Pharmingen; 1/400 dilution in 5 mg of bovine serum albumin/ml of PBST) was added to each well; the mixtures were then incubated for a further 2 h. […] When blue-green spots had developed, the plates were washed with water and dried, and the spots were counted with the aid of an inverted microscope.
The ability of the lipopeptide vaccine containing the ovalbumin CTL epitope ([…]) (SEQ ID NO: 173) to induce protection against melanoma cells expressing this CTL epitope (B16-OVA cells) was assessed. IFN-γ production was determined in mice inoculated with lipopeptide comprising a CDV-F T-helper epitope (P25) and a CTL epitope ([…]) (SEQ ID NO: 173) of ovalbumin linked via the epsilon amino group of an internal lysine residue positioned between said epitopes to Pam2Cys (i.e. the peptide [P25]-Lys(Pam2Cys-Ser-Ser)-[[…]] ([…] disclosed as SEQ ID NO: 173) listed in FIG. 2 and based upon SEQ ID NO: 174). […] (SEQ ID NO: 173) and the number of IFN-γ producing cells per 1,000,000 splenocytes was measured.

Data set [2] has as its system Lewis Lung tumour cells transfected with ovalbumin. As to the kind of experiment: Therapeutic treatment of Lewis Lung tumour expressing ovalbumin (tumour incidence and survival). Particulars: 20 nmoles s.c. 4 and 11 days after tumour cells; versus non-lipidated peptide or PBS. The class given is in vivo, mice. The protocol: FIG. 14 is a graphical representation showing therapeutic treatment of Lewis Lung tumour with a lipopeptide immunogen, as determined by the percentage of animals that remain tumor free following immunization. Mice were injected with 3×10^4 Lewis Lung tumour cells that had been transfected with ovalbumin and therefore expressed the CTL epitope […] (SEQ ID NO: 173) [Nelson et al. J Immunol. 166: 5557-5566, 2001]. Four days after receiving tumour cells, animals were inoculated with 20 nmoles lipidated peptide [P25]-Lys(Pam2Cys-Ser-Ser)-[[…]] ([…] disclosed as SEQ ID NO: 173) (open circles), non-lipidated peptide [P25]-Lys-[[…]] […] Animals were monitored for tumour incidence; animals were euthanased when tumour area exceeded 100 mm^2.
FIG. 15 is a graphical representation showing therapeutic treatment of Lewis Lung tumour with a lipopeptide immunogen, as determined by measuring survival of animals following immunization. […] Animals were monitored for survival; animals were euthanased when tumour area exceeded 100 mm^2.
Mice were injected with 3×10^4 Lewis Lung tumour cells that had been transfected with ovalbumin and therefore expressed the CTL epitope (Nelson et al., J Immunol. 166: 5557-5566, 2001). […] Animals were monitored for tumour incidence and survival; animals were euthanased when tumour area exceeded 100 mm^2.

Values joined by “and” are separate entries in the source; they are usually repeats but may differ in a detail not shown here. Equal values may be shown once.

Turning to `CCCCCCCCCCCCCCCC(=O)N[C@@H](CSCC(COC(=O)CCCCCCCCCCCCCCC)OC(=O)CCCCCCCCCCCCCCC)C(=O)N[C@@H](CO)C(=O)N[C@@H](CO)C(=O)NCCCC[C@H](NC(=O)[C@H](CO)NC(=O)[C@H](CCCCN)NC(=O)[C@H](CC(C)C)NC(=O)[C@H](CCC(=O)O)NC(=O)[C@@H](NC(=O)CNC(=O)[C@H](CCCCN)NC(=O)[C@@H](NC(=O)[C@H](CCC(N)=O)NC(=O)[C@H](Cc1ccccc1)NC(=O)[C@H](CCCNC(=N)N)NC(=O)[C@H](CC(N)=O)NC(=O)[C@H](CC(N)=O)NC(=O)[C@H](CC(C)C)NC(=O)[C@H](C)N)[C@@H](C)CC)C(C)C)C(=O)N[C@H](C(=O)N[C@@H](Cc1ccc(O)cc1)C(=O)N[C@@H](CCC(N)=O)C(=O)N[C@@H](CCCNC(=N)N)C(=O)N[C@H](C(=O)N[C@@H](CCCNC(=N)N)C(=O)N[C@@H](C)C(=O)N[C@@H](CC(C)C)C(=O)N[C@H](C(=O)O)C(C)C)[C@@H](C)O)[C@@H](C)O` (stereo partly drawn) [[Th]-Lys(Pam3Cys-Ser-Ser)-[CTL]], in data set [1], the “CTL determinant specific cytotoxicity (specific lysis) in vivo” value was “marked enhancement of specific lysis in vivo”.
As to “ALNNRFQIKGVELKSKTYQRTRALV [[Th]-Lys-[CTL]]”, the “reduction in viral load in the lungs compared to PBS alone” value in the data set with Mem 71 influenza virus stood at 65%. In the data set with D1 cells, the “maturation of dendritic cells / up-regulation of MHC class II expression (comparative, in words)” value is on record as “least effective”.
“KLIPNASLIENCTKAELKSIINFEKL [reference compound]”: in the data set with B16-OVA cells (15 day period), the tumour size result is given as “greater than 75 mm^2”. In addition, in the data set on splenocytes, the “No. IFN-γ secreting splenocytes per 10^6 splenocytes, Average” value came to 14 per 10^6 splenocytes; the “No. IFN-γ secreting splenocytes per 10^6 splenocytes” value is 18 per 10^6 splenocytes and 14 per 10^6 splenocytes and 10 per 10^6 splenocytes.
For the compound “[P25]-Lys(Pam2Cys-Ser-Ser)-[SIINFEKL]: peptide [P25]-Lys-[SIINFEKL] and a lipid of the Formula (IV) conjugated to the epsilon-amino group of the internal lysine (KLIPNASLIENCTKAELKSIINFEKL; Pam2Cys-Ser-Ser lipid on internal lysine)”, the “tumour growth (in words)” value in the data set with B16-OVA cells (over a 15 day period) was “No tumour growth”. In addition, in the data set with splenocytes, the “No. IFN-γ secreting splenocytes per 10^6 splenocytes, Average” value was found to be 227 per 10^6 splenocytes; the “No. IFN-γ secreting splenocytes per 10^6 splenocytes” value is 284 per 10^6 splenocytes and 205 per 10^6 splenocytes and 192 per 10^6 splenocytes. Besides, in data set [2], the “percentage of animals with fewer lesions developing (tumour free)” value is listed as “significantly higher” and the survival result was “survived for longer”.

Source of the values: patent US7833532B2, “Immunogenic lipopeptides comprising T-helper and cytotoxic T lymphocyte (CTL) epitopes” (The Council of The Queensland Institute of Medical Research, priority 2002, dated 2010).
